Data as given in US20110053897A1 (IRM LLC, priority 2009, published 2011).

Target: T1, Syk kinase (Homo sapiens, UniProt P43405)
T1 construct: purchased
Assay: Syk kinase inhibition, Caliper LabChip off-chip mobility-shift kinase assay
Assay type: biochemical
Conditions: Caliper LabChip assay; read-out: Syk Enzyme IC50
In short: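 Purified Syk pre-incubated 15 min with compound in 100 mM HEPES pH 7.5, 1 mM DTT, 10 mM MgCl2 or MnCl2, 0.002% Brij-35, then 1.5 μM fluorescein peptide and ATP at apparent KM added; 1–1.5 h at room temperature, 4% DMSO, EDTA stop. Microfluidic mobility-shift product/substrate conversion gave % inhibition; IC50 from 12-point series (10–0.00003 μM) by 4-parameter fit.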

IC50 [nM]	SMILES
22	CCn1ccc2cc(Nc3nccc(O)n3)nc(N[C@@H]3CC[C@H](O)C3)c2c1=O [compound 958]
41	CCn1ccc2cc(Nc3nccc(O)n3)nc(NC[C@@H]3CC[C@@H](O)C3)c2c1=O [compound 959]
61	CCn1ccc2cc(Nc3nccc(O)n3)nc(N[C@@H]3CC[C@@H](O)C3)c2c1=O [compound 960]
23	CCn1ccc2cc(Nc3nccc(O)n3)nc(N[C@H]3CC[C@@H](O)C3)c2c1=O [compound 961]
92	CCn1ccc2cc(Nc3cc(C)ccn3)nc(N[C@H](C)CO)c2c1=O [compound 962]
147	CCn1ccc2cc(Nc3cnccn3)nc(N[C@H](C)CO)c2c1=O [compound 963]
51	Cc1ccnc(Nc2cc3ccn(C(C)C)c(=O)c3c(N[C@H]3CC[C@H](O)CC3)n2)c1 [compound 964]
61	CC(C)n1ccc2cc(Nc3cnccn3)nc(N[C@H]3CC[C@H](O)CC3)c2c1=O [compound 965]
29	Cc1ccnc(Nc2cc3ccn(C(C)C)c(=O)c3c(N[C@@H](C)CO)n2)c1 [compound 966]
17	CC(C)n1ccc2cc(Nc3cnccn3)nc(N[C@@H](C)CO)c2c1=O [compound 967]
81	CCn1ccc2cc(Nc3cnccn3)nc(NC3CCC(=O)CC3)c2c1=O [compound 969]
75	CCn1ccc2cc(Nc3cc(C)ccn3)nc(NC3CCS(=O)(=O)C3)c2c1=O (centres unmarked) [compound 970]
145	CCn1ccc2cc(Nc3cnccn3)nc(NC3CCS(=O)(=O)C3)c2c1=O (centres unmarked) [compound 971]
59	CCn1ccc2cc(Nc3cc(C)ccn3)nc(NC3CCCC(O)C3)c2c1=O (centres unmarked) [compound 972]
26	CCn1ccc2cc(Nc3cnccn3)nc(NC3CCCC(O)C3)c2c1=O (centres unmarked) [compound 973]
203	Cc1ccnc(Nc2cc3ccn(CCO)c(=O)c3c(NC3CCS(=O)(=O)C3)n2)c1 (centres unmarked) [compound 974]

IC50 [nM]	SMILES
370	O=c1c2c(NC3CCS(=O)(=O)C3)nc(Nc3cnccn3)cc2ccn1CCO (centres unmarked) [compound 975]
5	O=c1[nH]ccc2cc(Nc3cnccn3)nc(N[C@H]3CC[C@H](O)CC3)c12 [compound 976]
20	Cc1ccnc(Nc2cc3ccn(C(C)C)c(=O)c3c(N[C@H]3CC[C@@H](O)C3)n2)c1 [compound 977]
16	CC(C)n1ccc2cc(Nc3cnccn3)nc(N[C@H]3CC[C@@H](O)C3)c2c1=O [compound 978]
36	CC(C)n1ccc2cc(Nc3cnccn3)nc(N[C@H]3CCC[C@H]3O)c2c1=O [compound 980]
15	O=c1[nH]ccc2cc(Nc3cnccn3)nc(N[C@H]3CC[C@@H](O)CC3)c12 [compound 981]
22	CS(=O)(=O)CCn1ccc2cc(Nc3cnccn3)nc(N[C@H]3CC[C@H](O)CC3)c2c1=O [compound 982]
51	[2H]C([2H])([2H])n1ccc2cc(Nc3cc(C)ccn3)nc(N[C@H]3CC[C@H](O)CC3)c2c1=O [compound 983]
29	[2H]C([2H])([2H])n1ccc2cc(Nc3cnccn3)nc(N[C@H]3CC[C@H](O)CC3)c2c1=O [compound 984]
41	[2H]C([2H])([2H])n1ccc2cc(Nc3cc(C)ccn3)nc(N[C@H]3CC[C@@H](CO)C3)c2c1=O [compound 985]
9	[2H]C([2H])([2H])n1ccc2cc(Nc3cnccn3)nc(N[C@H]3CC[C@@H](CO)C3)c2c1=O [compound 986]
60	Cc1ccnc(Nc2cc3ccn(C(C)C)c(=O)c3c(N[C@H]3CC[C@@H](CO)C3)n2)c1 [compound 987]
3	CC(C)n1ccc2cc(Nc3cnccn3)nc(N[C@H]3CC[C@@H](CO)C3)c2c1=O [compound 988]
15	O=c1c2c(N[C@H]3CC[C@H](O)CC3)nc(Nc3cnccn3)cc2ccn1CCO [compound 989]
20	[2H][C@]1(O)CC[C@H](Nc2nc(Nc3cc(C)ccn3)cc3ccn(CC)c(=O)c23)CC1 [compound 990]
29	[2H][C@]1(O)CC[C@H](Nc2nc(Nc3cnccn3)cc3ccn(CC)c(=O)c23)CC1 [compound 991]
